Source: PubChem BioAssay (NCI)
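Method: 48-hour compound exposure of cells in 96-well plates, five concentrations, linear interpolation of endpoints. TGI: concentration producing complete growth inhibition.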

Key:
Assay in all cases: NCI tumour cell line growth inhibition, 48 h
SF-268 CNS = tested on: SF-268 CNS
MALME-3M melanoma = tested on: MALME-3M melanoma
BT-549 breast = tested on: BT-549 breast
HCT-116 colon = tested on: HCT-116 colon
IGROV1 ovarian = tested on: IGROV1 ovarian
M14 melanoma = tested on: M14 melanoma
RPMI-8226 leukemia = tested on: RPMI-8226 leukemia
TK-10 renal = tested on: TK-10 renal
NCI-H522 lung = tested on: NCI-H522 lung
PC-3 prostate = tested on: PC-3 prostate
CAKI-1 renal = tested on: CAKI-1 renal
HOP-92 NSCLC = tested on: HOP-92 NSCLC
NCI-H460 lung = tested on: NCI-H460 lung
T-47D breast = tested on: T-47D breast
UO-31 renal = tested on: UO-31 renal
OVCAR-8 ovarian = tested on: OVCAR-8 ovarian
SN12C renal = tested on: SN12C renal
SNB-19 CNS = tested on: SNB-19 CNS
K-562 leukemia = tested on: K-562 leukemia
NCI-H23 lung = tested on: NCI-H23 lung
NCI-H226 lung = tested on: NCI-H226 lung
OVCAR-5 ovarian = tested on: OVCAR-5 ovarian
CCRF-CEM leukemia = tested on: CCRF-CEM leukemia
A498 renal = tested on: A498 renal
KM12 colon = tested on: KM12 colon
LOX IMVI melanoma = tested on: LOX IMVI melanoma
HS 578T breast = tested on: HS 578T breast
UACC-62 melanoma = tested on: UACC-62 melanoma
ACHN renal = tested on: ACHN renal
SK-OV-3 ovarian = tested on: SK-OV-3 ovarian
COLO 205 colon = tested on: COLO 205 colon
SF-295 CNS = tested on: SF-295 CNS
SF-539 CNS = tested on: SF-539 CNS
NCI/ADR-RES ovarian = tested on: NCI/ADR-RES ovarian
EKVX NSCLC = tested on: EKVX NSCLC
HCC-2998 colon = tested on: HCC-2998 colon
OVCAR-3 ovarian = tested on: OVCAR-3 ovarian
SNB-75 CNS = tested on: SNB-75 CNS
HOP-62 NSCLC = tested on: HOP-62 NSCLC
SK-MEL-2 melanoma = tested on: SK-MEL-2 melanoma
HT29 colon = tested on: HT29 colon
MDA-MB-435 = tested on: MDA-MB-435
OVCAR-4 ovarian = tested on: OVCAR-4 ovarian
MOLT-4 leukemia = tested on: MOLT-4 leukemia
SW-620 colon = tested on: SW-620 colon
786-0 renal = tested on: 786-0 renal
SK-MEL-5 melanoma = tested on: SK-MEL-5 melanoma
MDA-N = tested on: MDA-N
U251 CNS = tested on: U251 CNS
MDA-MB-231 breast = tested on: MDA-MB-231 breast
MCF7 breast = tested on: MCF7 breast
HCT-15 colon = tested on: HCT-15 colon
A549 NSCLC = tested on: A549 NSCLC
UACC-257 melanoma = tested on: UACC-257 melanoma
RXF 393 renal = tested on: RXF 393 renal
DU-145 prostate = tested on: DU-145 prostate
SK-MEL-28 melanoma = tested on: SK-MEL-28 melanoma

For Cc1ccc(S(=O)(=O)N2CCCCN(S(=O)(=O)c3ccc(C)cc3)Cc3ccccc3OCCOCCOc3c4cccc3Cc3cccc5c3OCCOCCOc3ccccc3CN(S(=O)(=O)c3ccc(C)cc3)CCCN(S(=O)(=O)c3ccc(C)cc3)Cc3ccccc3OCCOCCOc3c(cccc3C4)Cc3cccc(c3OCCOCCOc3ccccc3C2)C5)cc1, the TGI (SF-268 CNS) was > 100 µM, the TGI (MALME-3M melanoma) was > 100 µM and the TGI (BT-549 breast) was > 100 µM. The TGI (HCT-116 colon) was > 100 µM, the TGI (IGROV1 ovarian) was > 100 µM and the TGI (M14 melanoma) was > 100 µM. The TGI (RPMI-8226 leukemia) was > 100 µM, the TGI (TK-10 renal) was > 100 µM and the TGI (NCI-H522 lung) was > 100 µM. For the same molecule, the TGI (PC-3 prostate) was > 100 µM, the TGI (CAKI-1 renal) was > 100 µM and the TGI (HOP-92 NSCLC) was > 100 µM. The TGI (NCI-H460 lung) was > 100 µM, the TGI (T-47D breast) was > 100 µM and the TGI (UO-31 renal) was > 100 µM. For the same molecule, the TGI (OVCAR-8 ovarian) was > 100 µM, the TGI (SN12C renal) was > 100 µM and the TGI (SNB-19 CNS) was > 100 µM. The TGI (K-562 leukemia) was > 100 µM, the TGI (NCI-H23 lung) was > 100 µM and the TGI (NCI-H226 lung) was > 100 µM. For the same molecule, the TGI (OVCAR-5 ovarian) was > 100 µM, the TGI (CCRF-CEM leukemia) was > 100 µM and the TGI (A498 renal) was > 100 µM. The TGI (KM12 colon) was > 100 µM, the TGI (LOX IMVI melanoma) was > 100 µM and the TGI (HS 578T breast) was > 100 µM. For the same molecule, the TGI (UACC-62 melanoma) was > 100 µM, the TGI (ACHN renal) was > 100 µM and the TGI (SK-OV-3 ovarian) was > 100 µM. For the same molecule, the TGI (COLO 205 colon) was > 100 µM, the TGI (SF-295 CNS) was > 100 µM and the TGI (SF-539 CNS) was > 100 µM. For the same molecule, the TGI (NCI/ADR-RES ovarian) was > 100 µM, the TGI (EKVX NSCLC) was > 100 µM and the TGI (HCC-2998 colon) was > 100 µM. For the same molecule, the TGI (OVCAR-3 ovarian) was > 100 µM, the TGI (SNB-75 CNS) was > 100 µM and the TGI (HOP-62 NSCLC) was > 100 µM. For the same molecule, the TGI (SK-MEL-2 melanoma) was > 100 µM, the TGI (HT29 colon) was > 100 µM and the TGI (MDA-MB-435) was > 100 µM. For the same molecule, the TGI (OVCAR-4 ovarian) was > 100 µM, the TGI (MOLT-4 leukemia) was > 100 µM and the TGI (SW-620 colon) was > 100 µM. For the same molecule, the TGI (786-0 renal) was > 100 µM, the TGI (SK-MEL-5 melanoma) was > 100 µM and the TGI (MDA-N) was > 100 µM. The TGI (U251 CNS) was > 100 µM, the TGI (MDA-MB-231 breast) was > 100 µM and the TGI (MCF7 breast) was > 100 µM. The TGI (HCT-15 colon) was > 100 µM, the TGI (A549 NSCLC) was > 100 µM and the TGI (UACC-257 melanoma) was > 100 µM. The TGI (RXF 393 renal) was > 100 µM and the TGI (DU-145 prostate) was > 100 µM.
For C[C@]12CC(c3ccccc3O1)C(C(=O)NC13CC4CC(CC(C4)C1)C3)C(=O)N2 (stereo not given in full), the TGI (SF-268 CNS) was 96 µM, the TGI (MALME-3M melanoma) was > 100 µM and the TGI (BT-549 breast) was 61.8 µM. For the same molecule, the TGI (HCT-116 colon) was 41 µM, the TGI (IGROV1 ovarian) was > 100 µM and the TGI (M14 melanoma) was 35.9 µM. For the same molecule, the TGI (RPMI-8226 leukemia) was 31.3 µM, the TGI (TK-10 renal) was > 100 µM and the TGI (NCI-H522 lung) was > 100 µM. For the same molecule, the TGI (PC-3 prostate) was > 100 µM, the TGI (CAKI-1 renal) was > 100 µM and the TGI (HOP-92 NSCLC) was 55.8 µM. The TGI (NCI-H460 lung) was > 100 µM, the TGI (UO-31 renal) was 44.3 µM and the TGI (OVCAR-8 ovarian) was 93.2 µM. The TGI (SNB-19 CNS) was > 100 µM, the TGI (K-562 leukemia) was 30.4 µM and the TGI (NCI-H23 lung) was 61.9 µM. The TGI (NCI-H226 lung) was 71.3 µM, the TGI (OVCAR-5 ovarian) was 52.7 µM and the TGI (CCRF-CEM leukemia) was 61.1 µM. The TGI (A498 renal) was > 100 µM, the TGI (KM12 colon) was > 100 µM and the TGI (LOX IMVI melanoma) was 57.9 µM. For the same molecule, the TGI (HS 578T breast) was > 100 µM, the TGI (UACC-62 melanoma) was > 100 µM and the TGI (ACHN renal) was > 100 µM. For the same molecule, the TGI (SK-OV-3 ovarian) was > 100 µM, the TGI (COLO 205 colon) was 31.7 µM and the TGI (SF-295 CNS) was > 100 µM. The TGI (NCI/ADR-RES ovarian) was 55.6 µM, the TGI (EKVX NSCLC) was 19.3 µM and the TGI (HCC-2998 colon) was > 100 µM. The TGI (OVCAR-3 ovarian) was > 100 µM, the TGI (SNB-75 CNS) was 74 µM and the TGI (HOP-62 NSCLC) was > 100 µM. It also gave a TGI (SK-MEL-2 melanoma) of 43 µM, a TGI (HT29 colon) of 30.8 µM and a TGI (MDA-MB-435) of 65.1 µM. The TGI (OVCAR-4 ovarian) was > 100 µM, the TGI (MOLT-4 leukemia) was 36.7 µM and the TGI (SW-620 colon) was > 100 µM. For the same molecule, the TGI (786-0 renal) was 40.8 µM, the TGI (SK-MEL-5 melanoma) was 33.3 µM and the TGI (MDA-N) was 43.8 µM. For the same molecule, the TGI (SK-MEL-28 melanoma) was 64 µM, the TGI (U251 CNS) was > 100 µM and the TGI (MDA-MB-231 breast) was > 100 µM. For the same molecule, the TGI (MCF7 breast) was > 100 µM, the TGI (HCT-15 colon) was 60.8 µM and the TGI (A549 NSCLC) was 71.7 µM. For the same molecule, the TGI (UACC-257 melanoma) was > 100 µM, the TGI (RXF 393 renal) was 57.6 µM and the TGI (DU-145 prostate) was > 100 µM.
